Assay results taken from patent US8003632B2, “Cholinesterase inhibitors for treating inflammation” (priority 2004, dated 2011).
Where a name gives a salt, the structure may show the parent alone. Read-outs that look alike come from different tables or passages of the source.

What was measured:
TNF-α [1] = assay: Serum TNF-α (ELISA) in septic mice after cecal ligation and puncture; assay type: in vivo, BALB/c mice; details: for decrease of serum level TNF-α compared to vehicle control: blood 6 h after treatment
Experimental: (§1) Cecal Ligation and Puncture (CLP) was performed as described in Fink and Heard, J. of Surg. Res. 49:186-196 (1990), Wichman et al., Crit. Care Med. 26:2078-2086 (1998) and Remick et al., Shock 4:89-95 (1995). Briefly, BALB/c mice were anesthetized with 100 mg/kg ketamine (Fort Dodge, Fort Dodge, Iowa) and 10 mg/kg of xylazine (Bohringer Ingelheim, St. Joseph, Mo.) intramuscularly. A midline incision was performed, and the cecum was isolated. A 6-0 prolene suture ligature was placed at a level 5.0 mm from the cecal tip away from the ileocecal valve.
The ligated cecal stump was then punctured once with a 22-gauge needle, and 2mm stool extruded. The cecum was then placed back into its normal intra-abdominal position. The abdomen was then closed with a running suture of 6-0 prolene in two layers, peritoneum and fascia separately to prevent leakage of fluid. All animals were resuscitated with a normal saline solution administered sub-cutaneously at 20 ml/kg of body weight. Each mouse received a subcutaneous injection of imipenem (0.5 mg/mouse) (Primaxin, Merck & Co., Inc., West Point, Pa.) 30 minutes after the surgery. Animals were then allowed to recuperate.
Twenty-four hours after surgery, mice were intraperitoneally administered either 0.01 mg/kg or 0.1 mg/kg Galantamine Hydrobromide (CalBioChem, San Diego, Calif.) or vehicle control (saline). Galantamine was prepared in saline to a final concentration of 10 mg/ml. Mice were euthanized 6 hours after treatment with Galantamine or vehicle control (30 hours after surgery) and blood was collected by cardiac puncture for TNF-α measurement. TNF-α was measured by ELISA (mouse ELISA kit from R&D Systems Inc., Minneapolis, Minn.).
Cecal ligation and puncture were performed as described above. Randomly selected mice were treated intraperitoneally with vehicle (saline, 200 ul) or tacrine (2.5 μg/kg or 0.25 μg/kg) twice daily for 3 days, starting 24 hours after surgery. Mice were monitored for survival twice daily for three weeks. […] TNF was measured by ELISA as discussed above. HMGB1 was measured in sera by Western blot as discussed above.

HMGB1 = assay: Serum HMGB1 (western blot) in septic mice after cecal ligation and puncture; assay type: in vivo
Experimental: as §1
The ligated cecal stump was then punctured once with a 22-gauge needle, and 2mm stool extruded. The cecum was then placed back into its normal intra-abdominal position. The abdomen was then closed with a running suture of 6-0 prolene in two layers, peritoneum and fascia separately to prevent leakage of fluid. […]
Cecal Ligation and Puncture (CLP) was performed as described above in Example 1. […] HMGB1 was measured by western blot using anti-HMG1 polyclonal antisera (U.S. Pat. No. 6,303,321) and standard methods. Band densities were measured using a Bio-Rad Imaging densitometer. […]
Cecal ligation and puncture were performed as described above. […] Mice were monitored for survival twice daily for three weeks. […] TNF was measured by ELISA as discussed above. HMGB1 was measured in sera by Western blot as discussed above.

[2] = test system: murine CLP model of sepsis; assay type: in vivo, mice
[3] = test system: murine model of lethal endotoxemia; assay type: in vivo, mice; details: for mice survived: 14 days after endotoxin, vehicle none survived
TNF-α [4] = assay: Serum TNF-α in endotoxemic rats after intracerebroventricular administration; assay type: in vivo; details: ICV 1 hour before endotoxemia, doses tested 1-1000 ng/kg, dose of the result not stated
Experimental: Endotoxemia was induced in rats via intraperitoneal (IP) injection of endotoxin (lipopolysaccharide, LPS; E. coli 0111:B4, Sigma; 10 mg/ml in PBS) (10-30 mg/kg, IP). Rats were anesthetized with ketamine (10%) in xylazine and placed in a stereotatic head frame (Stoelting Co.). The incisor bar was adjusted until the plane defined by the lambda and bregma was parallel to the base plate. The needle of a Hamilton syringe ([…]) was stereotactically guided into lateral ventricle (0.8 mm posterior to bregma, 1.5 mm lateral to midline, 3.5 mm below the dura). Galantamine at 1, 10, 100 and 1000 ng/kg was dissolved in sterile endotoxin-free saline and administered over 2 min. Vehicle control (saline) was also administered over 2 min. The location of intracerebroventricular (i.c.v.) injections was confirmed by histological examination of the brain after the experiment. TNF-α was measured as described above.

TNF = assay: Serum TNF (ELISA) in endotoxemic mice; assay type: in vivo, BALB/c mice
Experimental: Male BALB/c mice were injected intraperitoneally with 6 mg/kg endotoxin (lipopolysaccharide, E. coli 0111:B4, Sigma, St. Louis, Mo.; 10 mg/ml in pyrogen-free saline), which had been sonicated for 30 min. Galantamine (CalBioChem, San Diego, Calif.) at doses of 0.1, 1, 2 or 4 mg/kg or vehicle control were injected intraperitoneally one hour before endotoxin administration in anesthetized animals. One and half hours after endotoxin exposure, blood was harvested for TNF measurement.
Blood was centrifuged at 5,000 rpm (1,500×g) for 15 min and the supernatants were collected for TNF determination. Serum and supernatants were used for TNF protein analysis by ELISA (R&D Systems Inc., Minneapolis, Minn.) according to the manufacturer's instructions.

[5] = 2.5 μg/kg i.p. 24 h after CLP, blood 6 h later

Structure (SMILES): Nc1c2c(nc3ccccc13)CCCC2 [Tacrine]
- effect on serum TNF in septic mice (TNF-α [1]; [5]): significantly reduced
- effect on serum HMGB1 in septic mice (HMGB1; [5]): significantly reduced
- effect on survival in mice with polymicrobial sepsis ([2]; mouse, in vivo, ip): significantly improved survival
- mice survived ([2]; mouse, in vivo, ip): all
- survival from lethal sepsis ([2]; mouse, in vivo, ip): 100%

Structure (SMILES): CN(C)C(=O)Oc1cccc([N+](C)(C)C)c1 [Neostigmine, Neostigmine methyl sulfate]
- mice survived ([3]; 0.1 mg/kg i.p. 30 minutes before endotoxin): about 50%

Structure (SMILES): COc1ccc2c3c1O[C@H]1C[C@@H](O)C=C[C@@]31CCN(C)C2 [Galantamine]
- decrease of serum level TNF-α compared to vehicle control (TNF-α [1]; 0.01 mg/kg i.p. 24 h after CLP): approximately 50%
- decrease of serum level TNF-α compared to vehicle control (TNF-α [1]; 0.1 mg/kg i.p. 24 h after CLP): ~80%
- decrease of serum level of HMGB1 compared to vehicle control (HMGB1; 0.1 mg/kg i.p. 24 h after CLP, blood 6 h after treatment): about 50%
- survival from lethal sepsis ([2]; 10 μg/kg i.p. twice daily, 3 days, from 24 h after CLP, monitored 3 weeks, vehicle 37%): 58%
- survival from lethal sepsis ([2]; 100 μg/kg i.p. twice daily, 3 days, from 24 h after CLP, monitored 3 weeks, vehicle 37%, p<0.05): 90%
- mice survived ([2]; Day 6, 10 ug/kg i.p. twice a day for 3 days from 24 h after CLP, vehicle 37%): 58%
- mice survived ([2]; Day 6, 100 ug/kg i.p. twice a day for 3 days from 24 h after CLP, vehicle 37%): 90%
- decrease of serum level TNF-α compared to vehicle control (TNF-α [4]): approximately 94%
- inhibition of serum TNF in endotoxemic mice (TNF; 2 mg/kg i.p. 1 h before endotoxin): nearly two-fold inhibition
- inhibition of serum TNF in endotoxemic mice (TNF; 4 mg/kg i.p. 1 h before endotoxin): nearly three-fold inhibition
- effect on serum TNF in endotoxemic mice (TNF; 1, 2 and 4 mg/kg i.p. 1 h before endotoxin, blood 1.5 h after endotoxin): significantly inhibited serum TNF
- mice survived ([3]; 4 mg/kg i.p. six hours before endotoxin): about 75%
- increase in survival ([3]; day 14, 1 mg/kg i.p. 1 h before endotoxin): about 15%
- increase in survival ([3]; day 14, 2 mg/kg i.p. 1 h before endotoxin): ~25%
- increase in survival compared with vehicle control ([3]; day 14, 4 mg/kg i.p. 1 h before endotoxin): about 90%
